Results from patent publication US8946203B2, “Benzodioxane inhibitors of leukotriene production” (Boehringer Ingelheim International GmbH, priority 2012, dated 2015).

Molecular target: T1, human LTA4 hydrolase (Homo sapiens, UniProt P09960)
T1 sequence (P09960 1-611): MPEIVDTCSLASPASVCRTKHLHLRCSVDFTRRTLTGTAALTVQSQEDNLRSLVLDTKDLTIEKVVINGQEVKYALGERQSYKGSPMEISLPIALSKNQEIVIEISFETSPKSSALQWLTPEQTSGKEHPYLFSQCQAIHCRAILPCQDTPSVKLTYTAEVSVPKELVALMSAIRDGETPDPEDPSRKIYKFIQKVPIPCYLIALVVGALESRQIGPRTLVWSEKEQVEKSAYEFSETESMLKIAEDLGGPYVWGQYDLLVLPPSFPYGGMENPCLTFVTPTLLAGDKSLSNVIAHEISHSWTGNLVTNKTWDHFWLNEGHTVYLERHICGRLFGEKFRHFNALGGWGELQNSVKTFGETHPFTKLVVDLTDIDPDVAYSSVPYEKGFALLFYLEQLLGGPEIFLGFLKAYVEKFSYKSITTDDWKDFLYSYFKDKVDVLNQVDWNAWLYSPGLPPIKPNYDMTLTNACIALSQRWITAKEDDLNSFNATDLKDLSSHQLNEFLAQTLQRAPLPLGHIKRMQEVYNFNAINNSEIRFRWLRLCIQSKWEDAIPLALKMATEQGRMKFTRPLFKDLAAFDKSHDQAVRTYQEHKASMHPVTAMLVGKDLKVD
Experiment: LTA4H Enzyme assay (cleavage of Arg-AMC, fluorescence)
Format: biochemical
Conditions: LTA4H Enzyme 1 nM, Arg-AMC substrate 50 μM, room temperature 1 h, fluorescence; read-out: IC50 values of LTA4H Enzyme assay
Method: The compounds of the invention are assessed for the ability to interact with human LTA4 hydrolase in an enzymatic assay that measures the ability of the enzyme to cleave the peptide bond of arginyl-aminomethylcoumarin (Arg-AMC). LTA4H Enzyme (1 nM final), Arg-AMC substrate (50 μM final), and compound are combined in a reaction buffer (50 mM Tris-HCl (pH 7.5), 100 mM KCl, 0.5% bovine serum albumin) at room temperature for 1 h. The formation of product is assessed by measuring the fluorescence of aminomethylcoumarin product (excitation wavelength 380 nm/emission wavelength 460 nm).

`c1ccc2c(c1)OCC(c1ccc(CN3CCOCC3)cc1)O2` (racemic) [Example 2, 4-[4-(2,3-dihydro-1,4-benzodioxin-2-yl)benzyl]morpholine] and `c1ccc2c(c1)OCC(c1ccc(CN3CCCOCC3)cc1)O2` (racemic) [Example 32, 4-[4-(2,3-dihydro-1,4-benzodioxin-2-yl)benzyl]-1,4-oxazepan] are within 1.5-fold of each other in IC50: 2.45 nM for the first, 1.8 nM for the second.

`CC1(C)CCN(Cc2ccc(C3COc4ccccc4O3)cc2)CC1` (racemic) [Example 3, 1-[4-(2,3-dihydro-1,4-benzodioxin-2-yl)benzyl]-4,4-dimethylpiperidine] and `FC1CCN(Cc2ccc(C3COc4ccccc4O3)cc2)CC1` (racemic) [Example 5, 1-[4-(2,3-dihydro-1,4-benzodioxin-2-yl)benzyl]-4-fluoropiperidine] are within 1.5-fold of each other in IC50: 2.57 nM for the first, 2.96 nM for the second.

First: O=C1NCCC12CCN(Cc1ccc(C3COc4ccccc4O3)cc1)CC2 (racemic) [Example 4, 8-[4-(2,3-dihydro-1,4-benzodioxin-2-yl)benzyl]-2,8-diazaspiro[4.5]decan-1-one]
Second: O=C1NC(=O)C2(CCN(Cc3ccc(C4COc5ccccc5O4)cc3)CC2)N1 (racemic) [Example 35, 8-[4-(2,3-dihydro-1,4-benzodioxin-2-yl)benzyl]-1,3,8-triazaspiro[4.5]decan-2,4-dione]
The IC50 of the first is 2.8-fold higher: 0.74 nM for the first, 0.26 nM for the second.

Going from `O=S1(=O)CCN(Cc2ccc(C3COc4ccccc4O3)cc2)CC1` (racemic) [Example 7, 4-[4-(2,3-dihydro-1,4-benzodioxin-2-yl)benzyl]thiomorpholine 1,1-dioxide] to `O=S1(=O)CCN(Cc2ccc(C3COc4cccnc4O3)cc2)CC1` (racemic) [Example 17, 3-{4-[(1,1-dioxidothiomorpholin-4-yl)methyl]phenyl}-2,3-dihydro[1,4]dioxin[2,3-b]pyridine], the IC50 falls from 2.79 nM to 0.77 nM (3.6-fold). The second is the more potent here.

Going from `CC(=O)N1CCN(Cc2ccc(C3COc4ccccc4O3)cc2)CC1` (racemic) [Example 11, 1-{4-[4-(2,3-dihydro-1,4-benzodioxin-2-yl)benzyl]piperazin-1-yl}ethanone] to `CC(=O)N1CCCN(Cc2ccc(C3COc4ccccc4O3)cc2)CC1` (racemic) [Example 31, 1-{4-[4-(2,3-dihydro-1,4-benzodioxin-2-yl)benzyl]-1,4-diazepan-1-yl}ethanone], the IC50 falls from 2.95 nM to 1.54 nM (1.9-fold). The second is the more potent here.

First: O=C(CNCc1ccc(C2COc3ccccc3O2)cc1)N1CCCC1 (racemic) [Example 12, 2-{[4-(2,3-dihydro-1,4-benzodioxin-2-yl)benzyl]amino}-1-(pyrrolidin-1-yl)ethanone]
Second: c1ccc2c(c1)OCC(c1ccc(CNCC3CC3)cc1)O2 (racemic) [Example 43, 1-cyclopropyl-N-[4-(2,3-dihydro-1,4-benzodioxin-2-yl)benzyl]methanamine]
The IC50 of the first is 2.3-fold higher: 10.2 nM for the first, 4.42 nM for the second. The second is the more potent here.

Compared with `c1cnc2c(c1)OCC(c1ccc(CN3CCCC3)cc1)O2` (racemic) [Example 15, 3-[4-(pyrrolidin-1-ylmethyl)phenyl]-2,3-dihydro[1,4]dioxin[2,3-b]pyridine], `c1ccc2c(c1)OCC(c1ccc(CN3CCCCCC3)cc1)O2` (racemic) [Example 40, 1-[4-(2,3-dihydro-1,4-benzodioxin-2-yl)benzyl]azepane] is 2.3-fold higher in IC50: 0.36 nM for the first, 0.82 nM for the second.

`c1ccc2c(c1)OCC(c1ccc(CN3CCn4cnnc4C3)cc1)O2` (racemic) [Example 16, 7-[4-(2,3-dihydro-1,4-benzodioxin-2-yl)benzyl]-5,6,7,8-tetrahydro[1,2,4]triazolo[4,3-a]pyrazine] and `CN1CCCN(Cc2ccc(C3COc4ccccc4O3)cc2)CC1` (racemic) [Example 30, 1-[4-(2,3-dihydro-1,4-benzodioxin-2-yl)benzyl]-4-methyl-1,4-diazepane] are within 1.5-fold of each other in IC50: 2.32 nM for the first, 1.77 nM for the second.

`CC(C)(C)NCc1ccc(C2COc3ccccc3O2)cc1` (racemic) [Example 23, N-[4-(2,3-dihydro-1,4-benzodioxin-2-yl)benzyl]-2-methylpropan-2-amine] and `CC[C@@H](C)NCc1ccc(C2COc3ccccc3O2)cc1` (mixture of isomers) [Example 24, (2R)-N-[4-(2,3-dihydro-1,4-benzodioxin-2-yl)benzyl]butan-2-amine] are within 1.5-fold of each other in IC50: 5.2 nM for the first, 5.9 nM for the second.

First: OCC1CCN(Cc2ccc(C3COc4ccccc4O3)cc2)CC1 (racemic) [Example 27, {1-[4-(2,3-dihydro-1,4-benzodioxin-2-yl)benzyl]piperidin-4-yl}methanol]
Second: OCCCC1CCN(Cc2ccc(C3COc4ccccc4O3)cc2)CC1 (racemic) [Example 29, 3-{1-[4-(2,3-dihydro-1,4-benzodioxin-2-yl)benzyl]piperidin-4-yl}propan-1-ol]
The IC50 of the first is 1.7-fold lower: 1.2 nM for the first, 2.04 nM for the second. The first is the more potent here.

Compared with `CC(C)(O)C1CCN(Cc2ccc(C3COc4ccccc4O3)cc2)CC1` (racemic) [Example 28, 2-{1-[4-(2,3-dihydro-1,4-benzodioxin-2-yl)benzyl]piperidin-4-yl}propan-2-ol], `CN(C)C(=O)C1CCN(Cc2ccc(C3COc4ccccc4O3)cc2)CC1` (racemic) [Example 51, 1-[4-(2,3-dihydro-1,4-benzodioxin-2-yl)benzyl]-N,N-dimethylpiperidine-4-carboxamide] is 4.1-fold lower in IC50: 3.4 nM for the first, 0.82 nM for the second. The second is the more potent here.

First: COCCN(C)Cc1ccc(C2COc3ccccc3O2)cc1 (racemic) [Example 33, N-[4-(2,3-dihydro-1,4-benzodioxin-2-yl)benzyl]-2-methoxy-N-methylethanamine]
Second: CCN(CC)Cc1ccc(C2COc3ccccc3O2)cc1 (racemic) [Example 45, N-[4-(2,3-dihydro-1,4-benzodioxin-2-yl)benzyl]-N-ethylethanamine]
The IC50 of the first is 3.5-fold higher: 3.19 nM for the first, 0.9 nM for the second.

`O[C@@H]1CCN(Cc2ccc(C3COc4ccccc4O3)cc2)C1` (mixture of isomers) [Example 34, (3R)-1-[4-(2,3-dihydro-1,4-benzodioxin-2-yl)benzyl]pyrrolidin-3-ol] and `COC1CCN(Cc2ccc(C3COc4ccccc4O3)cc2)C1` (racemic) [Example 47, 1-[4-(2,3-dihydro-1,4-benzodioxin-2-yl)benzyl]-3-methoxypyrrolidine] are within 1.5-fold of each other in IC50: 1.89 nM for the first, 1.73 nM for the second.

First: COC1CN(Cc2ccc(C3COc4ccccc4O3)cc2)C1 (racemic) [Example 36, 1-[4-(2,3-dihydro-1,4-benzodioxin-2-yl)benzyl]-3-methoxyazetidine]
Second: N#CC1CN(Cc2ccc(C3COc4ccccc4O3)cc2)C1 (racemic) [Example 46, 1-[4-(2,3-dihydro-1,4-benzodioxin-2-yl)benzyl]azetidine-3-carbonitrile]
The IC50 of the first is 5.6-fold lower: 4.45 nM for the first, 24.8 nM for the second. The first is the more potent here.

Going from `CN(C)C(=O)CC1CCN(Cc2ccc(C3COc4ccccc4O3)cc2)CC1` (racemic) [Example 38, 2-{1-[4-(2,3-dihydro-1,4-benzodioxin-2-yl)benzyl]piperidin-4-yl}-N,N-dimethylacetamide] to `O=C1CCCN1CC1CCN(Cc2ccc(C3COc4ccccc4O3)cc2)CC1` (racemic) [Example 50, 1-({1-[4-(2,3-dihydro-1,4-benzodioxin-2-yl)benzyl]piperidin-4-yl}methyl)pyrrolidin-2-one], the IC50 falls from 1.14 nM to 0.6 nM (1.9-fold).

Compared with `CS(=O)(=O)C1CCN(Cc2ccc(C3COc4ccccc4O3)cc2)CC1` (racemic) [Example 39, 1-[4-(2,3-dihydro-1,4-benzodioxin-2-yl)benzyl]-4-(methylsulfonyl)piperidine], `CS(=O)(=O)NC1CCN(Cc2ccc(C3COc4ccccc4O3)cc2)CC1` (racemic) [Example 48, N-{1-[4-(2,3-dihydro-1,4-benzodioxin-2-yl)benzyl]piperidin-4-yl}methanesulfonamide] is 13-fold lower in IC50: 2.14 nM for the first, 0.16 nM for the second. The second is the more potent here.

`c1ccc2c(c1)OCC(c1ccc(CNC3CCCC3)cc1)O2` (racemic) [Example 41, N-[4-(2,3-dihydro-1,4-benzodioxin-2-yl)benzyl]cyclopentanamine] and `O=C(O)C1CCCN(Cc2ccc(C3COc4ccccc4O3)cc2)C1` (racemic) [Example 113, 1-[4-(2,3-dihydro-1,4-benzodioxin-2-yl)benzyl]piperidine-3-carboxylic acid] are within 1.5-fold of each other in IC50: 3.71 nM for the first, 2.49 nM for the second.

First: CN(CCc1ccccn1)Cc1ccc(C2COc3ccccc3O2)cc1 (racemic) [Example 42, N-[4-(2,3-dihydro-1,4-benzodioxin-2-yl)benzyl]-N-methyl-2-(pyridin-2-yl)ethanamine]
Second: c1cncc(CNCc2ccc(C3COc4ccccc4O3)cc2)c1 (racemic) [Example 54, 1-[4-(2,3-dihydro-1,4-benzodioxin-2-yl)phenyl]-N-(pyridin-3-ylmethyl)methanamine]
The IC50 of the first is 8.6-fold lower: 0.69 nM for the first, 5.93 nM for the second.

Compared with `Cn1cnc(CNCc2ccc(C3COc4ccccc4O3)cc2)c1` (racemic) [Example 55, 1-[4-(2,3-dihydro-1,4-benzodioxin-2-yl)phenyl]-N-[(1-methyl-1H-imidazol-4-yl)methyl]methanamine], `NC(=O)C1CCCN(Cc2ccc(C3COc4ccccc4O3)cc2)C1` (racemic) [Example 114, 1-[4-(2,3-dihydro-1,4-benzodioxin-2-yl)benzyl]piperidine-3-carboxamide] is 4.7-fold lower in IC50: 3.63 nM for the first, 0.77 nM for the second. The second is the more potent here.
